Common to all, as to format: cell-based
The test system of test [1] is E. cloacae ATCC 13047 (EC108). As to the kind of experiment: Minimum inhibitory concentration assay, EC108. Conditions: Enterobacter cloacae, ATCC13047; E. cloacae ATCC 13047, wt; read-out: MICs EC108. On the procedure: (§1) Frozen bacterial strains were thawed and subcultured onto Mueller Hinton Broth (MHB) or other appropriate media (Streptococcus requires blood and Haemophilus requires hemin and NAD). Following incubation overnight, the strains were subcultured onto Mueller Hinton Agar and again incubated overnight. […] Isolated colonies were selected to prepare a starting inoculum equivalent to a 0.5 McFarland standard. The starting inoculum was diluted 1:125 using MHB for further use. Test compounds were prepared by dilution in sterile water to a final concentration of 5.128 mg/mL. Antibiotics (stored frozen, thawed and used within 3 hours of thawing) and compounds were further diluted to the desired working concentrations.
(§2) The assays were run as follows. Fifty μL of MHB was added to wells 2-12 of a 96-well plate. One hundred […] of appropriately diluted antibiotics was added to well 1. Fifty μL of antibiotics was removed from well 1 and added to well 2 and the contents of well 2 mixed by pipetting up and down five times. Fifty μL of the mixture in well 2 was removed and added to well 3 and mixed as above. Serial dilutions were continued in the same manner through well 12. Fifty μL was removed from well 12 so that all contained 50 μL. Fifty μL of the working inoculum was then added to all test wells. A growth control well was prepared by adding 50 μL of working inoculum and 50 μL of MHB to an empty well. The plates were then incubated at 37° C. overnight, removed from the incubator and each well was read on a plate reading mirror. The lowest concentration (MIC) of test compound that inhibited the growth of the bacteria was recorded.

For test [2], the system named is E. coli EC155 (tet resistant: tetA efflux). As to the kind of experiment: microbe, parasite or virus in culture. The following applies: Escherichia coli; E. coli tet resistant: tetA (efflux); read-out: MICs EC155. On the procedure: as §1, §2
Test [3] deals with S. aureus SA158 (tet resistant: tetK efflux). Put plainly: microbe, parasite or virus in culture. The following applies: Staphylococcus aureus, read-out: MICs SA158. How it is done: as §1, §2
Test [4] concerns K. pneumoniae KP153 (tet resistant: tetA efflux). Put plainly: microbe, parasite or virus in culture. Conditions: Klebsiella pneumoniae, read-out: MICs KP153. On the procedure: as §1, §2
Test [5] deals with S. pneumoniae ATCC 49619 (SP106). Put plainly: Minimum inhibitory concentration assay, SP106. Conditions: Streptococcus pneumoniae, ATCC49619; S. pneumoniae ATCC 49619, wt; read-out: MICs SP106. How it is done:
as §1, §2

Test [6] deals with K. pneumoniae ATCC 13883 (KP109). As to the kind of experiment: Minimum inhibitory concentration assay, KP109. Conditions: Klebsiella pneumoniae, ATCC13883; K. pneumoniae ATCC 13883, wt; read-out: MICs KP109. On the procedure:
as §1, §2

For test [7], the system named is S. pneumoniae SP160 (tet resistant: tet M). Put plainly: Minimum inhibitory concentration assay, SP160. The following applies: Streptococcus pneumoniae, read-out: MICs SP160. On the procedure:
as §1, §2

Test [8] concerns E. faecalis EF159 (tet resistant: tetM). Put plainly: Minimum inhibitory concentration assay, EF159. Conditions: Enterococcus faecalis, read-out: MICs EF159. How it is done:
as §1, §2

Test [9] relates to E. faecalis ATCC 29212 (EF103). As to the kind of experiment: Minimum inhibitory concentration assay, EF103. The following applies: Enterococcus faecalis, ATCC29212, read-out: MICs EF103. How it is done:
as §1, §2

In test [10] the test system is P. aeruginosa ATCC 27853 (PA111). As to the kind of experiment: Minimum inhibitory concentration assay, PA111. The following applies: Pseudomonas aeruginosa, ATCC27853; P. aeruginosa ATCC 27853, wt; read-out: MICs PA111. How it is done:
as §1, §2

Test [11] concerns S. aureus ATCC 29213 (SA101, MSSA). As to the kind of experiment: Minimum inhibitory concentration assay, SA101. Conditions: Staphylococcus aureus; S. aureus ATCC 29213, MSSA control; read-out: MICs SA101. How it is done: as §1, §2
The subject of test [12] is A. baumanii ATCC 19606 (AB110). Put plainly: Minimum inhibitory concentration assay, AB110. The following applies: Acinetobacter baumannii, ATCC19606; A. baumanii ATCC 19606, wt; read-out: MICs AB110. On the procedure: as §1, §2
Test [13] deals with E. coli ATCC 25922 (EC107). Put plainly: Minimum inhibitory concentration assay, EC107. Conditions: Escherichia coli, ATCC25922; E. coli ATCC 25922, wt; read-out: MICs EC107. On the procedure: as §1, §2
Test [14] deals with S. aureus SA161 (tet resistant: tet(M) ribosomal protection). As to the kind of experiment: Minimum inhibitory concentration assay, SA161. Conditions: Staphylococcus aureus, read-out: MICs SA161. On the procedure:
as §1, §2

In test [15] the test system is S. aureus ATCC 13709 (SA100, MSSA, Smith strain). Put plainly: Minimum inhibitory concentration assay, SA100. Conditions: Staphylococcus aureus; S. aureus ATCC 13709, MSSA Smith strain; read-out: MICs SA100. How it is done:
as §1, §2

Values after ≈ are worked out from the molar mass of the structure shown.

With `CN(C)[C@@H]1C(O)=C(C(N)=O)C(=O)[C@@]2(O)C(O)=C3C(=O)c4c(O)c(NC(=O)CN5Cc6ccccc6C5)cc(F)c4C[C@H]3C[C@@H]12` [Compound 46], the MIC came out at 32 µg/mL (≈ 52.8 µM) in test [1]; 4 µg/mL (≈ 6.59 µM) in test [2]; 0.25 µg/mL (≈ 0.412 µM) in test [3]; 32 µg/mL (≈ 52.8 µM) in test [4]; 0.125 µg/mL (≈ 0.206 µM) in test [5]; 4 µg/mL (≈ 6.59 µM) in test [6]. The MIC in test [7] was 0.125 µg/mL (≈ 0.206 µM); in test [8], 0.5 µg/mL (≈ 0.824 µM); in [9], 0.25 µg/mL (≈ 0.412 µM); in test [10], more than 32 µg/mL; in [11] it was 0.25 µg/mL (≈ 0.412 µM); in [12], 0.125 µg/mL (≈ 0.206 µM). Besides, the MIC came out at 2 µg/mL (≈ 3.3 µM) in [13], 0.5 µg/mL (≈ 0.824 µM) in test [14] and 0.25 µg/mL (≈ 0.412 µM) in test [15].

For `CN(C)[C@@H]1C(O)=C(C(N)=O)C(=O)[C@@]2(O)C(O)=C3C(=O)c4c(O)c(NC(=O)CN5CCC5)cc(F)c4C[C@H]3C[C@@H]12` [Compound 32], the MIC in [1] was 1 µg/mL (≈ 1.84 µM); in test [2], 8 µg/mL (≈ 14.7 µM); in test [3], 0.5 µg/mL (≈ 0.918 µM); in test [4], 4 µg/mL (≈ 7.35 µM); in test [5], not above 0.0156 µg/mL; in test [6], 1 µg/mL (≈ 1.84 µM). Further, the MIC in [7] was not above 0.0156 µg/mL; in test [8], 0.125 µg/mL (≈ 0.23 µM); in test [9] it was 0.0625 µg/mL (≈ 0.115 µM); in test [10], 8 µg/mL (≈ 14.7 µM); in [11], 0.125 µg/mL (≈ 0.23 µM); in test [12], 2 µg/mL (≈ 3.67 µM). Moreover, the MIC in test [13] was 0.25 µg/mL (≈ 0.459 µM); in test [14], 0.25 µg/mL (≈ 0.459 µM); in [15] it was 0.5 µg/mL (≈ 0.918 µM).

Consider `CN(C)[C@@H]1C(O)=C(C(N)=O)C(=O)[C@@]2(O)C(O)=C3C(=O)c4c(O)c(NC(=O)CN5CC6CCCC6C5)cc(F)c4C[C@H]3C[C@@H]12` (stereo partly drawn) [Compound 45], for which the MIC in test [1] was 4 µg/mL (≈ 6.68 µM); in test [2], 2 µg/mL (≈ 3.34 µM); in [3], 0.5 µg/mL (≈ 0.835 µM); in test [4], 4 µg/mL (≈ 6.68 µM); in test [5], 0.125 µg/mL (≈ 0.209 µM); in test [6] it was 2 µg/mL (≈ 3.34 µM). Also, the MIC in test [7] was 0.06 µg/mL (≈ 0.1 µM); in [8], 0.5 µg/mL (≈ 0.835 µM); in [9], 0.25 µg/mL (≈ 0.418 µM); in test [10], more than 32 µg/mL; in test [11] it was 0.5 µg/mL (≈ 0.835 µM); in [12] it was 0.06 µg/mL (≈ 0.1 µM). In addition, the MIC in test [13] worked out at 1 µg/mL (≈ 1.67 µM); in [14], 1 µg/mL (≈ 1.67 µM); in test [15], 0.5 µg/mL (≈ 0.835 µM).

Regarding `CN(C)[C@@H]1C(O)=C(C(N)=O)C(=O)[C@@]2(O)C(O)=C3C(=O)c4c(O)c(NC(=O)CN5CC[C@@H](O)C5)cc(F)c4C[C@H]3C[C@@H]12` [Compound 39], the MIC is 16 µg/mL (≈ 27.8 µM) in [1]; more than 32 µg/mL in test [2]; 16 µg/mL (≈ 27.8 µM) in test [3]; more than 32 µg/mL in [4]; 0.25 µg/mL (≈ 0.435 µM) in [5]; 16 µg/mL (≈ 27.8 µM) in [6]. Further, the MIC in test [7] was 0.5 µg/mL (≈ 0.87 µM); in [8] it was 2 µg/mL (≈ 3.48 µM); in [9] it was 2 µg/mL (≈ 3.48 µM); in [10], more than 32 µg/mL; in [11], 2 µg/mL (≈ 3.48 µM); in [12], 32 µg/mL (≈ 55.7 µM). Further, the MIC came out at 4 µg/mL (≈ 6.96 µM) in test [13], 2 µg/mL (≈ 3.48 µM) in test [14] and 2 µg/mL (≈ 3.48 µM) in [15].

Turning to `CCCCNCC(=O)Nc1cc(F)c2c(c1O)C(=O)C1=C(O)[C@]3(O)C(=O)C(C(N)=O)=C(O)[C@@H](N(C)C)[C@@H]3C[C@@H]1C2` [Compound 13], the MIC in [1] was 1 µg/mL (≈ 1.78 µM); in [2] it was 4 µg/mL (≈ 7.14 µM); in test [3], 0.25 µg/mL (≈ 0.446 µM); in [4], 2 µg/mL (≈ 3.57 µM); in [5], not above 0.0156 µg/mL; in test [6] it was 0.5 µg/mL (≈ 0.892 µM). The MIC in test [7] is not above 0.0156 µg/mL; in test [8], 0.0625 µg/mL (≈ 0.111 µM); in [9] it was not above 0.0156 µg/mL; in test [10], 16 µg/mL (≈ 28.5 µM); in [11] it was not above 0.0156 µg/mL; in [12] it was 0.25 µg/mL (≈ 0.446 µM). The MIC in test [13] was 0.125 µg/mL (≈ 0.223 µM); in test [14] it was 0.0625 µg/mL (≈ 0.111 µM); in test [15], not above 0.0156 µg/mL.

These data come from patent US8796245B2 (TetraPhase Pharmaceuticals, Inc., priority 2008, dated 2014).
